# Source: publication PMC9669016, “First-in-human phase Ia study of the PI3Kα inhibitor CYH33 in patients with solid tumors” (Nature Communications, 2022)
# Test system: patients with advanced solid tumors
# Test: Phase Ia safety, tolerability, DLT/MTD (TRAEs graded by NCI-CTCAE v4.03)
# Assay type: in vivo
# Description: This is a phase I clinical study (ClinicalTrials.gov identifier: NCT03544905), including a phase Ia study of oral CYH33 monotherapy in patients with advanced solid tumors, and a phase Ib study of oral CYH33 monotherapy focused on several specific tumors. […] The phase Ia study included dose-escalation stage and dose-expansion stage. […] The secondary outcomes also included evaluation of changes in PD biomarkers in response to CYH33 treatment (including proteomics of blood specimens at baseline and during treatment, immunocyte subpopulation ratios and molecular markers, cell free DNA in peripheral blood, and blood glucose). However, in compliance with the local human genetic resource regulations and procedures, peripheral blood samples were not obtained for PD biomarker analysis, therefore, only fasting blood glucose was obtained and used as a PD biomarker for CYH33 treatment. The exploratory objective was the relationship between the efficacy of CYH33 treatment and tumor biomarker status.
# An accelerated titration design (ATD) and an mTPI-2 design were adopted to guide toxicity monitoring and dose escalation. The target DLT rate was 30%, with the acceptable toxicity probability interval of (0.25, 0.35). For the first two preset doses of 1 mg and 5 mg CYH33 in the ATD phase, if there were no grade ≥2 TRAEs during the DLT observation period, 100% dose escalation was allowed in the subsequent dose group. After entering the mTPI-2 phase, the SMC guidance was followed to determine the dose level, dosing frequency, and number of subjects in the next dose group, based on the previously obtained safety and PK data for that dose group. If necessary, it was permitted to add an additional dose level between two explored dose levels for further investigation.
# During the phase Ia study, the safe and probably effective dose will be delivered to the expansion cohort to further investigate the safety, tolerability and efficacy of this dose level, while the dose escalation study can be continued simultaneously. If necessary, it is permitted to insert a new dose level between two explored dose levels for exploration. The subjects to be enrolled in the expansion cohort are patients with advanced solid tumors with PIK3CA gene mutations. When there are two or more dose groups at dose expansion simultaneously, the allocation ratio of the number of subjects in each dose group should be as close as possible to the ratio of ORR in each dose group. In principle, when the cumulative ORR at a certain dose level is <10%, the number of subjects in this dose group will be determined by the SMC. A total of approximately 60 patients are expected to be enrolled in the whole phase Ia study.
# The secondary endpoints included preliminary efficacy assessments based on ORR, PFS, DoR, DCR, and clinical benefit rate, assessed per RECIST 1.1,PK parameters for CYH33 and its metabolite I27, and changes in PD biomarkers in response to CYH33 treatment.
# [1] = all patients 1–60 mg QD, n = 51
smiles,measurement,setting,value
"COC(=O)Nc1cc(C(F)(F)F)c(-c2nc(N3CCOCC3)c3cc(CN4CCN(S(C)(=O)=O)CC4)cn3n2)cn1 [CYH33, methyl (5-(6-((4-(methylsulfonyl)piperazin-1-yl)methyl)−4-morpholinopyrrolo[2,1-f][1,2,4]triazin-2-yl)−4-(trifluoromethyl)pyridin-2-yl)carbamate]","Generalized oedema, Grade ≥ 3 TRAE","1–20 mg QD, n = 10",0 n (%)
same,Grade ≥ 3 TRAEs in all patients,"1–20 mg QD, n = 10",2 (20.0) n (%)
same,"Hyperglycemia, Grade ≥ 3 TRAE","1–20 mg QD, n = 10",2 (20.0) n (%)
same,"Hyperglycemia, all-grade TRAE","1–20 mg QD, n = 10",7 (70.0) n (%)
same,"Hyponatremia, all-grade TRAE","1–20 mg QD, n = 10",0 n (%)
same,"Mouth ulceration, Grade ≥ 3 TRAE","1–20 mg QD, n = 10",0 n (%)
same,"Mouth ulceration, all-grade TRAE","1–20 mg QD, n = 10",1 (10.0) n (%)
same,"Nausea, Grade ≥ 3 TRAE","1–20 mg QD, n = 10",0 n (%)
same,"Nausea, all-grade TRAE","1–20 mg QD, n = 10",3 (30.0) n (%)
same,"Peripheral edema, Grade ≥ 3 TRAE","1–20 mg QD, n = 10",0 n (%)
same,"Peripheral edema, all-grade TRAE","1–20 mg QD, n = 10",1 (10.0) n (%)
same,"Rash, Grade ≥ 3 TRAE","1–20 mg QD, n = 10",0 n (%)
same,"Rash, all-grade TRAE","1–20 mg QD, n = 10",1 (10.0) n (%)
same,TRAEs leading to death,"1–20 mg QD, n = 10",0 n (%)
same,TRAEs leading to dose discontinuation,"1–20 mg QD, n = 10",0 n (%)
same,TRAEs leading to dose interruption,"1–20 mg QD, n = 10",2 (20.0) n (%)
same,TRAEs leading to dose reduction,"1–20 mg QD, n = 10",1 (10.0) n (%)
same,TRAEs occurring in ≥ 10% of patients,"1–20 mg QD, n = 10",7 (70.0) n (%)
same,Treatment-related serious adverse events,"1–20 mg QD, n = 10",0 n (%)
same,"Vomiting, all-grade TRAE","1–20 mg QD, n = 10",3 (30.0) n (%)
same,"Weight loss, all-grade TRAE","1–20 mg QD, n = 10",1 (10.0) n (%)
same,"White blood cell count decreased, Grade ≥ 3 TRAE","1–20 mg QD, n = 10",0 n (%)
same,recommended phase 2 dose (RP2D),QD,40 mg
same,"Blood glucose increased, Grade ≥ 3 TRAE",[1],1 (2.0) n (%)
same,"Decreased appetite, Grade ≥ 3 TRAE",[1],1 (2.0) n (%)
same,"Decreased appetite, all-grade TRAE",[1],21 (41.2) n (%)
same,"Diabetic ketosis, Grade ≥ 3 TRAE",[1],1 (2.0) n (%)
same,"Diarrhea, Grade ≥ 3 TRAE",[1],2 (3.9) n (%)
same,"Diarrhea, all-grade TRAE",[1],15 (29.4) n (%)
same,"Dizziness, Grade ≥ 3 TRAE",[1],1 (2.0) n (%)
same,"Electrocardiogram QT prolonged, Grade ≥ 3 TRAE",[1],1 (2.0) n (%)
same,"Face oedema, Grade ≥ 3 TRAE",[1],1 (2.0) n (%)
same,"Facial edema, all-grade TRAE",[1],8 (15.7) n (%)
same,"Fatigue, Grade ≥ 3 TRAE",[1],1 (2.0) n (%)
same,"Fatigue, all-grade TRAE",[1],9 (17.6) n (%)
same,"Generalized oedema, Grade ≥ 3 TRAE",[1],1 (2.0) n (%)
same,Grade ≥ 3 TRAEs in all patients,[1],33 (64.7) n (%)
same,"Hyperglycemia, Grade ≥ 3 TRAE",[1],30 (58.8) n (%)
same,"Hyperglycemia, all-grade TRAE",[1],46 (90.2) n (%)
same,"Hyponatremia, all-grade TRAE",[1],6 (11.8) n (%)
same,"Mouth ulceration, Grade ≥ 3 TRAE",[1],1 (2.0) n (%)
same,"Mouth ulceration, all-grade TRAE",[1],6 (11.8) n (%)
same,"Nausea, Grade ≥ 3 TRAE",[1],1 (2.0) n (%)
same,"Nausea, all-grade TRAE",[1],19 (37.3) n (%)
same,"Peripheral edema, Grade ≥ 3 TRAE",[1],4 (7.8) n (%)
same,"Peripheral edema, all-grade TRAE",[1],13 (25.5) n (%)
same,"Rash, Grade ≥ 3 TRAE",[1],1 (2.0) n (%)
same,"Rash, all-grade TRAE",[1],9 (17.6) n (%)
same,TRAEs leading to death,[1],0 n (%)
same,TRAEs leading to dose discontinuation,[1],4 (7.8) n (%)
same,TRAEs leading to dose interruption,[1],36 (70.6) n (%)
same,TRAEs leading to dose reduction,[1],6 (11.8) n (%)
same,TRAEs occurring in ≥ 10% of patients,[1],47 (92.2) n (%)
same,Treatment-related serious adverse events,[1],6 (11.8) n (%)
same,"Vomiting, all-grade TRAE",[1],13 (25.5) n (%)
same,"Weight loss, all-grade TRAE",[1],16 (31.4) n (%)
same,"White blood cell count decreased, Grade ≥ 3 TRAE",[1],1 (2.0) n (%)
same,"serious AEs nausea, vomiting, abdominal pain, dyspnea, hyperglycemia, pyrexia (each)","all patients, n = 1 each",2.0%
same,"dose reduction due to peripheral edema, weight loss, mouth ulceration, prolonged electrocardiogram QT (each)","all patients, n = 1 for each",2.0%
same,dose reduction due to fatigue,"all patients, n = 2",4.0%
same,hyperglycemia leading to dose interruption,"all patients, n = 32 of 51",62.7%
same,patients with dose interruptions due to TRAEs,"all patients, n = 36 of 51",70.6%
same,"Decreased appetite, all-grade TRAE","all patients, n = 51",41.2%
same,"Diarrhea, all-grade TRAE","all patients, n = 51",29.4%
same,"Facial edema, all-grade TRAE","all patients, n = 51",15.7%
same,"Fatigue, all-grade TRAE","all patients, n = 51",17.6%
same,"Hyperglycemia, Grade ≥ 3 TRAE","all patients, n = 51",58.8%
same,"Hyperglycemia, TRAE at any grade","all patients, n = 51",90.2%
same,"Hyponatremia, all-grade TRAE","all patients, n = 51",11.8%
same,"Mouth ulceration, all-grade TRAE","all patients, n = 51",11.8%
same,"Nausea, all-grade TRAE","all patients, n = 51",37.3%
same,"Peripheral edema, all-grade TRAE","all patients, n = 51",25.5%
same,"Rash, all-grade TRAE","all patients, n = 51",17.6%
same,"Vomiting, all-grade TRAE","all patients, n = 51",25.5%
same,"Weight loss, all-grade TRAE","all patients, n = 51",31.4%
same,incidences of all other grade ≥3 TRAEs,"all patients, n = 51",< 5%
same,treatment-related deaths,"all patients, n = 51",No treatment-related deaths
same,"Peripheral edema, grade 3 TRAE","all patients, n = 51 (four patients)",7.8%
same,patients with dose reductions due to TRAEs,"all patients, six of 51",11.8%
same,patients with treatment-associated serious AEs,"all patients, six of 51",11.8%
same,patients who permanently discontinued CYH33 due to DLTs,"all patients, three of 51",5.9%
same,maximum tolerated dose (MTD),"once daily, single agent, dose-escalation stage (mTPI-2)",40 mg
